{"source": "patent US20250228841A1", "about": "“COMPOSITIONS AFFECTING PIGMENT PRODUCTION AND METHODS FOR TREATMENT OF BACTERIAL DISEASES” (Aptorum Therapeutics Limited, priority 2024, published 2025)", "key": {"[1]": {"assay": "Solubility in solutions simulating gastric juice and intestinal fluid", "format": "physicochemical", "from_the_text": "The following table (Table 4) illustrates the solubility of two different compounds, NP16-XL-016 (hereinafter as “IM032”) and NP16-XL-061 (hereinafter as “IM032-C1”), in two solutions with different pH values simulating the pH of gastric juice and human intestinal fluid using HCl and phosphate buffer respectively."}, "[2]": {"tested_on": "MDCK cells", "assay": "Cytotoxic activity on MDCK cells", "format": "cell-based"}, "[3]": {"tested_on": "S. aureus COL", "assay": "Hydrogen peroxide susceptibility assay", "format": "cell-based, Staphylococcus aureus", "settings": "S. aureus COL grown with NP16 (40 μM); 440 mM H2O2, 1 hr", "protocol": "(§1) S. aureus was grown in BHI with or without NP16 (40 μM). After 2 days, bacteria were washed twice in PBS, diluted to a concentration of 1×10^7 CFUs per 100 μl reaction mixture in a 96-well plate. Hydrogen peroxide (H2O2) in PBS was added to a 440 mM final concentration, and the plate was incubated for 1 hr at 37° C. with shaking. The reaction was stopped by the addition of 1,000 U/ml of exogenous catalase (Sigma-Aldrich, St. Louis, MO), and bacterial viability was assessed by plating dilutions on BHI agar plates."}, "[4]": {"tested_on": "non-pigmented strain RN6390", "assay": "Hydrogen peroxide susceptibility assay, non-pigmented strain", "format": "cell-based, Staphylococcus aureus", "protocol": "as §1"}, "[5]": {"tested_on": "S. aureus COL", "assay": "Bactericidal activity of human polymorphonuclear leukocytes (neutrophil killing)", "format": "cell-based, Staphylococcus aureus", "settings": "NP16-treated S. aureus COL", "protocol": "The killing of S. aureus by human polymorphonuclear leukocytes (PMNs) was determined as previously described, with some modifications. Briefly, PMNs (10^6) were mixed with ˜10^7 opsonized S. aureus bacteria MOI=10 in 24-well tissue culture plates. After centrifuged at 380 g for 8 min, plates were incubated at 37° C. for up to 1.5 h. PMNs were lysed with saponin (20 min on ice) and plated on BHIA plates. The percent survival was calculated by normalized with time zero. Statistics were performed with the Student's t-test (GraphPad Prism)."}, "[6]": {"tested_on": "S. aureus COL", "assay": "Murine intraperitoneal infection model, liver and spleen CFU", "format": "in vivo, Staphylococcus aureus", "settings": "BALB/c mice, i.p. S. aureus COL; 0.35 mg twice per day (days -1, 0, 1 and 2); 72 hours; P<0.01", "protocol": "(§2) For other S. aureus sub-type, eight-to ten-week-old female BALB/c mice were injected intraperitoneally (i.p) with 4×10^8 CFUs of early stationary phase S. aureus COL. After 3 d, animals were euthanized, the liver and spleen were isolated, homogenized in PBS, and plated on to obtain viable counts. For the treatment study, mice were randomized into two groups at the start of the experiment and administered, i.p., either 0.35 mg of NP16 or PBS with 5% Tween-80 as a control, twice per day, starting on d-1 to d 2 (a total of eight doses for each). Intraperitoneal challenge with 4×10^8 CFUs of early stationary phases S. aureus COL was performed on d 0. The mice were sacrificed on d 3 for enumeration of bacterial CFUs in liver and spleen homogenates."}, "[7]": {"tested_on": "clinical isolate S. aureus strain AE052", "assay": "Murine intraperitoneal infection model, kidney CFU", "format": "in vivo, Staphylococcus aureus", "protocol": "as §2\nFor the clinical isolate S. aureus strain AE052, all operations were similar to those used for the COL strain, except 10^8 CFUs of early stationary phase bacteria were used in the infection model, and kidneys were collected for monitoring bacterial loads. Statistics were performed using the Student's t-test (GraphPad Prism)."}, "[8]": {"tested_on": "10 different Staphylococcus aureus (S. aureus) strains", "assay": "Inhibition of staphyloxanthin production by IM032 in different S. aureus strains (overall)", "format": "cell-based", "settings": "any concentration of IM032 (up to 4,000 nM)", "protocol": "Compound IM032 was evaluated for its in vitro efficacy to inhibit staphyloxanthin production in 10 different Staphylococcus aureus (S. aureus) strains, SH1000, HG003, ATCC29213, ATCC700698, COL, JE2, LAC, USA300-3, Newman and ST239III.\nThe test item was dissolved at 44.9 mg/mL in DMSO at 37° C., aliquoted into several tubes, and stored at −20° C. until use. On the day of testing, a stock solution was serially diluted to testing concentrations with DMSO. All solutions were vortexed and mixed with a pipette to achieve homogeneity immediately before dilution. A correction factor for purity was not applied to the test item preparations.\nEach test item solution (6 μL) was combined with 0.6 mL of S. aureus culture in brain heart infusion broth (CFU per well=1×10^7). 12-wells repeats were performed for each concentration in 96-well 2-mL plates. The plates were then incubated in a shaker at 37° C., 250 rpm for 24 hours. […] After centrifugation, 100 μL of supernatant was transferred to a 96-well cell culture plate and OD450 was measured. The relative pigment production at each tested concentration was calculated as follows: […]\nThe IC50 for each test was determined based on the calculated inhibition ratio from above with Prism 6.0 by employing a non-linear regression (four parameters) fitting method with assigned bottom and top at 0.05 and 0.95 respectively. […]"}, "[9]": {"tested_on": "MRSA USA 300 ATCC BAA-1717", "assay": "Mouse (LD0-20) bacteremia model, bacterial counts in organs", "format": "in vivo, Staphylococcus aureus", "settings": "BALB/c mice, IV MRSA USA 300 ATCC BAA-1717; IM032 0.3-30 mg/kg PO BID 7 days; Day 7", "protocol": "A bacterial strain, USA 300 MRSA BAA-1717, was used to infect BALB/c (female). Test animals were intravenously (IV) inoculated with MRSA ATCC BAA-1717 at a target density of 1×10^6 CFU/mouse. Test substance, IM032 at 0, 0.3, 1, 3, 10, and 30 mg/kg, was administered orally (PO) twice daily (BID) for a total of 7 dosing days.\nThe reference agents, vancomycin at 3 mg/kg was administered IV once (QD) at 1 h after infection for 7 consecutive days.\nWith reference to FIG. 9, the animals were IV inoculated with MRSA USA 300 ATCC BAA-1717 at 1.02×10^6 CFU/mouse. IM032 at 0.3, 1, 3, 10, and 30 mg/kg were orally (PO) administrated twice daily (BID) at 1 and 7 h after the infection on Day 1, and then twice daily at 6-hour intervals in the next 6 days for a total of 7 days of dosing. Vancomycin, at 3 mg/kg, was administered intravenously (IV) at 1 h after the infection on Day 1 and then once a day in the next 6 days for a total of 7 days of dosing. All the test animals in the IM032 treatment, reference vancomycin and the vehicle control groups were sacrificed at 168 hours (Day 7) after the infection. […] Statistical significance compared to the respective vehicle control was determined by unpaired student t-tests. […]\nWith reference to FIG. 10, bacterial density in lung and liver were determined. […] Statistical significance compared to the respective vehicle control was determined by unpaired student t-tests. […]"}, "[10]": {"tested_on": "methicillin-resistant S. aureus (MRSA)", "assay": "Mouse MRSA skin infection model, wound closure", "format": "in vivo, Staphylococcus aureus", "from_the_text": "Visual wound healing/closure in different treatment groups of mice can be observed in FIG. 11B."}}}
{"smiles": "O=C(/C=C/c1ccccc1Cl)Nc1ccc(S(=O)(=O)N2CCCCC2)cc1", "note": "[IM032-Cl, 3-(6-chlorophenyl)-N-[4-(1-piperidine-1-sulfonyl)phenyl] acrylamide]", "values": [{"measurement": "Solubility in pH 2 (0.1N HCl + 0.1% Tween 80) - simulating human stomach", "setting": "[1]; pH 2", "result": "<LOQ"}]}
{"smiles": "O=C(/C=C/c1ccccc1)Nc1ccc(S(=O)(=O)N2CCCC2)cc1", "note": "[NP16, 3-phenyl-N-[4-(1-pyrrolidinyl-sulfonyl)phenyl]acrylamide]", "values": [{"measurement": "effect on the growth of MDCK cells (cytotoxic activity)", "setting": "[2]", "result": "no effect"}, {"measurement": "susceptibility to killing by hydrogen peroxide", "setting": "[3]", "result": "increased susceptibility"}, {"measurement": "susceptibility to hydrogen peroxide killing irrespective of treatment", "setting": "[4]", "result": "similar"}, {"measurement": "susceptibility to killing by neutrophils", "setting": "[5]", "result": "increased susceptibility"}, {"measurement": "bacterial counts in the livers and spleens versus control group", "setting": "[6]", "result": "significantly lower"}, {"measurement": "mice with kidney bacterial counts below the detection threshold", "setting": "[7]; AE052 infection, n=10, control group 2 of 10", "result": "6 of 10"}, {"measurement": "bacterial counts in the kidneys versus control group", "setting": "[7]; mice infected with AE052, 0.35 mg twice per day, P<0.001", "result": "significantly lower"}]}
{"smiles": "O=C(/C=C/c1ccccc1Br)Nc1ccc(S(=O)(=O)N2CCCCC2)cc1", "note": "[NP16-XL-016, 3-(6-bromophenyl)-N-[4-(1-piperidine-1-sulfonyl)phenyl] acrylamide]", "values": [{"measurement": "solubility in two biorelevant media relative to IM032-C1", "setting": "[1]; pH 2 and pH 7.4, fold higher than IM032-C1", "result": "> 20", "unit": "×"}, {"measurement": "bactericidal effect (reduction in optical density)", "setting": "[8]", "result": "not observed"}, {"measurement": "bacteria count across major organs", "setting": "[9]", "result": "statistically significant reduction"}, {"measurement": "wound healing compared with 2% Mupirocin and Linezolid", "setting": "[10]; oral 30 mg/kg twice a day", "result": "statistically significant improvement"}, {"measurement": "visual wound healing (observed size of the closure) among the three groups", "setting": "[10]; oral BID for 7 days, FIG. 11B", "result": "best visual wound healing"}]}
